Reference: US20100093715A1, “Plant productivity enhancement by combining chemical agents with transgenic modifications” (BASF SE, priority 2007, published 2010)

Columns and labels:
[1] = system: J553x(HIIIAxA188) null and transgenic corn; experiment: Fipronil/Pyraclostrobin study, second trial: seed treatment, greenhouse growth, LemnaTec Scanalyzer imaging; format: in vivo, maize (Zea Mays L.)
Protocol: (§1) J553x(HIIIAxA188) null and transgenic corn seeds of the T2 generation were treated with deionized water (Blank), 200 grams fipronil, 10 grams pyraclostrobin (F500), and 200 grams fipronil+10 grams pyraclostrobin; all formulation rates were grams/100 kg seed. Every formulation was applied to approximately 80 seeds. The formulation was pipetted into a 125 ml flask along the sides and bottom of the flask before adding the seeds and shaking the flask for 30 seconds. The coated seeds were then removed from the flask and placed in a plastic dish for drying.
(§2) Seventy-five 3-L pots per treatment (Blank, fipronil, pyraclostrobin, and fipronil+pyraclostrobin) were filled with potting media, labeled with colored stakes, and given a unique barcode. One seed per pot was planted at a depth of approximately 2 cm and covered with media. The media was lightly watered to imbibe the seeds, while allowing for ample oxygen exchange and so that the chemical coatings on the seeds remained intact. After planting, the pots were randomly distributed into three replicate blocks (1 bench=1 block), each with 25 plants of every treatment.
(§3) The plants were maintained in a greenhouse under optimal, well-watered conditions (80-90% field capacity) upon emergence. Supplemental nutrients were administered every third day during watering. The greenhouse temperature was maintained at 30° C., relative humidity at 75%, and light at 350 μmol m^−2s^−1, in a 15-hour day/9-hour night photoperiod. Supplemental lighting was provided using metal-halide lights. Once per week, the pots were randomly mixed within each block.
(§4) On day 21, the plants were imaged to collect the phenotypic data as described in the Imaging Procedures section. Leaves were sampled for transgene copy number on day 25 to identify the null and transgenic plants. On day 28, the plants were imaged and then harvested to collect fresh weight. The presence of the transgene was determined by the Taqman molecular analysis technique. Differences in the phenotypic data collected during the imaging process and in fresh weight among the four treatments and between the null and transgenic plants were assessed. The chemical by transgenic interactions were determined.
(§5) Imaging of the plants was facilitated using a LemnaTec Scanalyzer (Würselen, Germany), which includes a conveyor belt, an imaging station, a watering station, and computers for collecting, processing, and storing the image data. The cameras have a resolution of 1280×960 pixels and operate in 24-bit color.
(§6) The plants were manually transferred by block onto the conveyor system of the scanalyzer. Each plant was then moved through the imager automatically. At the imaging station, cameras collected the top view image and two side view images. The side view images were the transverse view and the view parallel with the plane of the plant.
(§7) As described in the formula (see Appendix A), the scanalyzer calculates plant volume as a number of pixels. To assign a physiologically meaningful value to the volume measurements, a separate experiment was conducted. The plants were scanned with the scanalyzer then harvested. The plant material was placed into a graduated cylinder filled to a known volume with water. The difference between the water plus plant material and water alone provided a known plant volume in mL.
(§8) Using the LemnaTec scanalyzer, we collected stem width; stalk volume; top, transverse, and parallel view plant areas; top, transverse, and parallel view green and yellow pixel counts; stem length; leaf angles and internode lengths through leaf 5; plant width and height; total leaf length; and total plant length.
(§9) Fresh Weight—A measurement of the fresh weight of the plant in grams. Hand-collected fresh weight is measured by harvesting the plant and weighing it on a balance. LemnaTec fresh weight is calculated by the scanalyzer based on plant volume and plant age. The zoom angles of the camera lenses are normalized using a calibration table. […]

[2] = system: J553x(HIIIAxA188) null and transgenic corn; experiment: Fipronil/Pyraclostrobin study, initial trial: seed treatment, greenhouse growth, LemnaTec Scanalyzer imaging and harvest; format: in vivo, maize (Zea Mays L.); settings: for Internode 1 length / Internode 2 length / Internode 3 length: seed treatment; for Fresh Weight: hand-collected
Protocol: as §1, §2, §3, §4, §5, §6, §7, §8, §9

[3] = Fipronil-Worldwide technical Bulletin, BASF; cited from earlier work
[4] = initial trial, relative to all other treatments

N#Cc1nn(-c2c(Cl)cc(C(F)(F)F)cc2Cl)c(N)c1[S+]([O-])C(F)(F)F (stereo not drawn) [Fipronil, 5-amino-1-(2,6-dichloro-α,α,α-trifluoro-p-tolyl)-4-trifluoromethylsulfinylpyrazole-3-carbonitrile]
Broad Side Drk Grn ([1]; Avg): 25067.65 pixels
Broad Side Plnt Area ([1]; Avg): 35413.12 pixels
Calc Fresh Weight ([1]; Avg): 100.77 g
Narrow Side Drk Grn ([1]; Avg): 25969.34 pix
Plant Volume ([1]; Avg): 9.19 M pixels
Top Drk Grn ([1]; Avg): 57132.20 pixels
Broad Side Drk Grn ([1]; Null plants): 26176.97 pixels
Broad Side Plnt Area ([1]; Null plants): 36398.18 pixels
Calc Fresh Weight ([1]; Null plants): 99.88 g
Narrow Side Drk Grn ([1]; Null plants): 24703.55 pix
Plant Volume ([1]; Null plants): 8.89 M pixels
Top Drk Grn ([1]; Null plants): 56608.71 pixels
Broad Side Drk Grn ([1]; Trans plants): 23958.33 pixels
Broad Side Plnt Area ([1]; Trans plants): 34428.06 pixels
Calc Fresh Weight ([1]; Trans plants): 101.65 g
Narrow Side Drk Grn ([1]; Trans plants): 27235.14 pix
Plant Volume ([1]; Trans plants): 9.50 M pixels
Top Drk Grn ([1]; Trans plants): 57655.69 pixels
# Fully Expanded Leaves ([2]; Avg): 3.0
Leaf Angle 0 ([2]; Avg): 63.2 degrees
Leaf Angle 1 ([2]; Avg): 58.9 degrees
Plant Volume ([2]; Avg): 6.70E+06 pixels
Stem Length ([2]; Avg): 108.8 cm
stalk area from the transverse view, Pixel Count ([2]; Avg): 4910 pixels
Internode 1 length ([2]; Avg of null and transgenic): 35.9 cm
Internode 2 length ([2]; Avg of null and transgenic): 44.2 cm
Internode 3 length ([2]; Avg of null and transgenic): 40.0 cm
# Fully Expanded Leaves ([2]; Null plants): 3.1
Leaf Angle 0 ([2]; Null plants): 57.5 degrees
Leaf Angle 1 ([2]; Null plants): 63.6 degrees
Plant Volume ([2]; Null plants): 6.53E+06 pixels
Stem Length ([2]; Null plants): 110.4 cm
stalk area from the transverse view, Pixel Count ([2]; Null plants): 5081 pixels
Internode 1 length ([2]; Null plants): 35.3 cm
Internode 2 length ([2]; Null plants): 45.9 cm
Internode 3 length ([2]; Null plants): 42.4 cm
Internode 1 length ([2]; Trans (transgenic) plants): 36.6 cm
Internode 2 length ([2]; Trans (transgenic) plants): 42.5 cm
Internode 3 length ([2]; Trans (transgenic) plants): 37.7 cm
# Fully Expanded Leaves ([2]; Trans plants): 3.0
Leaf Angle 0 ([2]; Trans plants): 68.7 degrees
Leaf Angle 1 ([2]; Trans plants): 54.4 degrees
Plant Volume ([2]; Trans plants): 6.86E+06 pixels
Stem Length ([2]; Trans plants): 107.1 cm
stalk area from the transverse view, Pixel Count ([2]; Trans plants): 4744 pixels
Fresh Weight ([2]; Avg): 162.8 grams
Fresh Weight ([2]; Null plants): 160.9 grams
Fresh Weight ([2]; Trans plants): 164.7 grams
fresh mass (in words) ([2]; initial trial, in general): enhanced
plant height (in words) ([2]; initial trial, in general): enhanced
plant volume (in words) ([2]; initial trial, in general): enhanced
plant width (in words) ([2]; initial trial, in general): enhanced
greenness (in words) [2, 4]: enhanced
internode length (in words) [2, 4]: enhanced
leaf angle (in words) [2, 4]: enhanced
plant area (in words) [2, 4]: enhanced
Dark Green Count ([2]; parallel view, Avg): 16389.5 pixels
Medium Green Count ([2]; parallel view, Avg): 5662.4 pixels
Plant Area ([2]; parallel view, Avg): 23760.8 pixels
Yellow Count ([2]; parallel view, Avg): 1708.9 pixels
Dark Green Count ([2]; parallel view, Null plants): 15955.0 pixels
Medium Green Count ([2]; parallel view, Null plants): 5470.9 pixels
Plant Area ([2]; parallel view, Null plants): 23035.0 pixels
Yellow Count ([2]; parallel view, Null plants): 1609.1 pixels
Dark Green Count ([2]; parallel view, Trans plants): 16812.3 pixels
Medium Green Count ([2]; parallel view, Trans plants): 5848.7 pixels
Plant Area ([2]; parallel view, Trans plants): 24467.0 pixels
Yellow Count ([2]; parallel view, Trans plants): 1806.0 pixels
Medium Green Count ([2]; top view, Avg): 17465 pixels
Medium Green Count ([2]; top view, Null plants): 17038 pixels
Medium Green Count ([2]; top view, Trans plants): 17881 pixels
Medium Green Count ([2]; transverse view, Avg): 9089.0 pixels
Yellow Count ([2]; transverse view, Avg): 3363.6 pixels
Medium Green Count ([2]; transverse view, Null plants): 9132.8 pixels
Yellow Count ([2]; transverse view, Null plants): 3268.7 pixels
Medium Green Count ([2]; transverse view, Trans plants): 9046.4 pixels
Yellow Count ([2]; transverse view, Trans plants): 3455.9 pixels
reported plant performance effects [3]: enhance overall root system and root hair development, increase tiller number and productivity, increase photosynthetic capacity (plant greenness), increase leaf area and plant height, stimulate early flowering and grain maturation leading to significant increases in yield
